From patent US9670217B2, “Process for preparing chlorins and their pharmaceutical uses” (UNIVERSIDADE DE COIMBRA, priority 2008, dated 2017)

Experiments:
S91 Cloudman melanoma = experiment: PDT of implanted S91 tumors; type: in vivo, DBA/2 mice
Text: The mice used in the present study were form two sources. Dark toxicity, biodistribution and farmacokinetic studies employed DBA/2 mice, weighing 20-30 g, from the animal breeding facility at the Faculty of Biochemistry, Biophysics and Biotechnology, Jagiellonian University, Krakow. The mice were kept on a standard laboratory diet with free access to drinking water. The use of such animals for experimental purposes was approved by the Jagiellonian University Committee for Ethics of Experiments on Animals (decision No. 384/99). Such mice were also employed in PDT.
The tumors grew to reach 5 mm in about one week after the implantation. No spontaneous necrosis was observed. The treatment was initiated when the tumor attained 5 mm in diameter in each animal. The day the tumors reached the treatment size, the mice were injected via i.p. with a dose of 10 mg/kg of Luzitin-C12Et in PEG400. At 24 h post-injection, the mice were anesthetized with ketamine and xylazine, and restrained in plastic holders, then treated with different light doses with the Hamamatsu 748 nm diode laser described before. […] The mice were checked daily, and the size of the tumors was measured and recorded.

S91 (mouse melanoma) = experiment: Cell photosensitization, filtered halogen lamp, MTT; type: cell-based; settings: [Luzitin-Cl] = 20 μM
Procedure: (§1) Irradiation in in vitro experiments was performed using either a halogen lamp or a laser source. In the first case, a 500 W halogen lamp was placed 50 cm from the irradiated plate to insure a homogeneous irradiation. A cooled water filter (d=35 mm) and a 600 nm cut off filter were placed between the lamp and samples. The fluence rate reaching samples was 3 mW/cm^2. The emission spectrum of the halogen lamp was recorded using a spectroradiometer IL2000 (Spectrocube), FIG. 1. In the second case, three Lynx external cavity diode lasers TEC 500 powered by PilotPC 500 Laser Controllers (Sacher Lasertechnik, Marburg, Germany) were employed. The laser energies were stable at 40 mW for the 748 nm laser, 10 mW for the 649 laser and 10 mW for the 633 laser. The laser energies were regularly measured with a Coherent LaserCheck. In some in vitro experiments, the laser light was focused on an optical fiber through a collimator in microbench, and delivered to the cells. This system reduced the 748 nm laser light to 30 mW.
(§2) The cell lines employed in halogen lamp irradiation were the MCF7 (human breast carcinoma), SKMEL 188 (human melanoma) and S91/I3 (mouse melanoma) cells. They were used both for cytotoxicity and photocytotoxicity experiments. MCF7 cells were grown supplemented with 10% fetal calf (FBS) serum, 25 units/ml of penicillin, and 25 μg/ml of streptomycin. Human melanoma cells SKMEL-188 were grown in F10 medium supplemented with 10% fetal calf serum (FCS), 100 units/ml of penicillin, and 100 μg/ml of streptomycin. I3 subline of Cloudman S91 melanoma cells were cultured in RPMI 1640 medium supplemented with 100 units/ml of penicillin, 100 μg/ml streptomycin and 5% fetal calf serum (FCS) (Gibco BRL). All cell lines were cultivated as monolayer in Petri dishes of 60 mm diameter and incubated at 37° C. in a humid atmosphere containing 5% CO2.
(§3) Cytotoxicity. Cell metabolic efficiency and viability were determined by the uptake and reduction of 3-(4,5-dimethylthiazol-2-yl)-2,5-diphenyl tetrazolium bromide (MTT) to an insoluble formazan dye by cellular microsomal enzymes. The cell lines were grown in RPMI medium with 10% fetal calf serum, penicillin and streptomycin. Cells were maintained in 5% CO2, 95% air and 100% humidity. For determining cytotoxicity, these cells were plated in 96-well plates at a density of 1×10^4 cells well in complete media. After 24 h, the cells were incubated with photosensitizers at different concentrations (0.25 up to 50 μM) for 18 hours at 37° C. The cells were then washed twice with PBS and incubated in growth medium at 37° C. for 24 h. Next, the medium was replaced by 100 μl of fresh medium and 20 μl of MTT, and the cells were incubated with MTT for 3 h, with a final concentration of 0.5 mg/ml. Then the culture medium was replaced with DMSO-methanol solution (1:1) to dissolve the blue formazan crystals. The 96-well culture plate was shaken for 0.5 min at room temperature and immediately read for optical density at 560 nm using an ELISA reader (GENios Plus; Tecan Trading AG, Switzerland). The cell survival was expressed by the absorbance changes of the formazan salt, and survival rate was given as the percent ratio of viable treated cells vs. the number of viable untreated cells. Number of cells was determined from linear regression of a calibration curve.
(§4) Cell photosensitization. SKMEL 188, S91 and MCF7 cells were prepared as described above. […] The cells were incubated for 12 h at 37° C. and then irradiated at a 0.53 mW cm^2 fluence rate and in doses ranging from 0.1 to 0.64 J cm^2. We recall that photosensitizer uses only ca. ⅕ of the available fluence rate of the filtered halogen lamp. The MTT test was performed 24 h after irradiation. The values were obtained from three independent experiments and expressed as percent of cell survival with reference to control cells, which were manipulated in the same manner but without incubation with photosensitizer and without illumination. […]

[1] = tested on: MCF7 (human breast carcinoma); experiment: as above; type: cell-based
Procedure: as §1, §2, §3, §4

[2] = minipig
[3] = [Luzitin-Cl] = 20 μM, filtered halogen lamp

## CCNS(=O)(=O)c1ccc(Cl)c(-c2c3nc(c(-c4c(Cl)ccc(S(=O)(=O)NCC)c4Cl)c4ccc([nH]4)c(-c4c(Cl)ccc(S(=O)(=O)NCC)c4Cl)c4nc(c(-c5c(Cl)ccc(S(=O)(=O)NCC)c5Cl)c5ccc2[nH]5)CC4)CC3)c1Cl [Luzitin-Cl2Et, 5,10,15,20-tetrakis(2,6-dichloro-3-N-ethylsulfamoylphenyl)bacteriochlorin]
S91 Cloudman melanoma; 10 mg/kg i.p. in PEG400, 24 h post-injection, 748 nm laser, single session
  tumor response after PDT: long-lasting tumor regression
S91 Cloudman melanoma; within minutes of the irradiation
  necrosis of irradiated tumor area: evident signals of necroses

## O=S(=O)(O)c1ccc(Cl)c(-c2c3nc(c(-c4cc(S(=O)(=O)O)ccc4Cl)c4ccc([nH]4)c(-c4cc(S(=O)(=O)O)ccc4Cl)c4nc(c(-c5cc(S(=O)(=O)O)ccc5Cl)c5ccc2[nH]5)CC4)CC3)c1 [Luzitin-Cl, 5,10,15,20-tetrakis(2-chloro-5-sulfonylphenyl)bacteriochlorin]
S91 (mouse melanoma)
  LD50 (light dose to kill 50% of the cells): 0.15 J/cm^2
  LD90 (light dose to kill 90% of the cells): 0.3 J/cm^2
[1]; 5 μM, filtered halogen light 0.6 J/cm^2, 12 h incubation
  cell kill: 100%
[1]; [3]
  LD50 (light dose to kill 50% of the cells): 0.08 J/cm^2
  LD90 (light dose to kill 90% of the cells): 0.25 J/cm^2

## CNS(=O)(=O)c1ccc(F)c(-c2c3nc(c(-c4cc(S(=O)(=O)NC)ccc4F)c4ccc([nH]4)c(-c4cc(S(=O)(=O)NC)ccc4F)c4nc(c(-c5cc(S(=O)(=O)NC)ccc5F)c5ccc2[nH]5)CC4)CC3)c1 [Luzitin-FMet, 5,10,15,20-tetrakis(2-fluoro-5-N-methylsulfamoylphenyl)bacteriochlorin]
[2]
  depth of diffusion through stratum corneum and epidermis: 50 microns
  time to diffuse through all the epidermis: ≤ 3 h
[2]; in vivo
  side effects of topical gel formulation: None of the animals, and in particular the animal that remained alive, showed evidence for side effects
